{
  "source": "patent US5750523A",
  "about": "“Pyridazinone derivatives” (Nissan Chemical Industries, Ltd., priority 1994, dated 1998)",
  "key": {"[1]": {"tested_on": "Rabbit PRP (platelet aggregation)", "test": "Antiplatelet aggregation effect, rabbit platelet rich plasma (PRP)", "type": "cell-based, male Japanese white rabbits", "conditions": "37° C., 2 minutes incubation, Table III", "experimental": "(§1) Blood was collected from the abdominal aortae of male Wister rats (weight: 200 to 300 g) or male Japanese white rabbits (weight: 1.8 to 2.5 kg) into a syringe containing 1/10 volume 3.8% sodium citrate. The blood thus obtained was centrifuged at 200×g for 7 minutes at room temperature to obtain platelet rich plasma (PRP). Furthermore, the residue was centrifuged at 2000×g for 10 minutes to obtain platelet poor plasma (PPP). The measurement was effected by diluting PRP and PPP to 300,000/mm^3. PRP and PPP were put in cuvettes, and the measurement range of transmittance was adjusted to 0% in the case of PRP and to 100% in the case of PPP. Thereafter, a test sample drug dissolved in 100% dimethyl sulfoxide (DMSO) was added to PRP (the final concentration of DMSO: 0.25%). After incubation at 37° C. and 900 rpm for 2 minutes, an aggregating agent was added to measure an aggregation curve. The antiplatelet aggregation effect of the test sample drug was expressed by a concentration, IC50 (μM), at which the aggregation of control sample was 50% inhibited. The aggregating agents ADP and collagen were used at minimum concentrations (ADP: 5 to 10 μM: collagen : 2.5 to 10 μg/ml) which caused maximum aggregation. The measurement of platelet aggregation was carried out by using NBS HEMA TRACER 601.\n(§2) Tables II and III show antiplatelet aggregation effects of test compounds evaluated as IC50 values (μM).\nAs a comparative compound, the following compound disclosed in reference (d) was used. [drawing 20]"}, "[2]": {"tested_on": "rabbit thoracic aorta ring specimen", "test": "Vasodilation effect, relaxation of phenylephrine contraction of rabbit thoracic aorta ring", "conditions": "Oryctolagus cuniculus; contraction by phenylephrine 10^-5 M; cumulative administration from 3×10^-9 M; papaverine hydrochloride 10^-4 M = 100%; Table IV", "experimental": "By using a rabbit thoracic aorta ring specimen, the relaxation effect of a test sample drug on contraction by phenylephrine (10^-5 M) was evaluated. A test sample drug was administered cumulatively from a concentration of 3×10^-9 M, after the contraction became stable. The results were expressed on the basis that the relaxation effect of papaverine hydrochloride (10^-4 M) was 100%.\nThe comparative compound was the same as in Test Example 1."}, "[3]": {"tested_on": "Rat PRP (platelet aggregation)", "test": "Antiplatelet aggregation effect, rat platelet rich plasma (PRP)", "type": "cell-based, male Wister rats", "conditions": "37° C., 2 minutes incubation, Table II", "experimental": "as §1, §2"}, "[4]": {"conditions": "Oryctolagus cuniculus, Platelet, 2 min, aggregating agent ADP 5 to 10 μM, read-out: Rabbit PRP IC50, ADP"}, "[5]": {"conditions": "Oryctolagus cuniculus, Platelet, 2 min, aggregating agent collagen 2.5 to 10 μg/ml, read-out: Rabbit PRP IC50, Collagen"}, "[6]": {"conditions": "Rattus norvegicus, Platelet, 2 min, aggregating agent ADP 5 to 10 μM, read-out: Rat PRP IC50, ADP"}},
  "note": "Where a name gives a salt, the structure may show the parent alone. Read-outs that look alike come from different tables or passages of the source.",
  "data": [
    {"smiles": "O=C1CCc2cc(OCCCCc3nnnn3C3CCCCC3)ccc2N1", "note": "[Cilostazol, reference compound]", "values": [
      {"measurement": "IC50", "setting": "[1]; [4]", "result": 15000, "unit": "nM"},
      {"measurement": "IC50", "setting": "[1]; [5]", "result": 2400, "unit": "nM"}
    ]},
    {"smiles": "O=c1[nH]nc(OCCCc2ccc(Cl)cc2)c(NCc2cccnc2)c1Br", "note": "[Comparative Compound, reference compound]", "values": [
      {"measurement": "IC50", "setting": "[1]; [4]", "result": 81, "unit": "nM"},
      {"measurement": "IC50", "setting": "[1]; [5]", "result": 17, "unit": "nM"},
      {"measurement": "EC50", "setting": "[2]", "result": 400, "unit": "nM"}
    ]},
    {"smiles": "O=c1[nH]nc(OCCC(O)c2ccc(Cl)cc2)c(NCc2cccnc2)c1Br", "note": "(centres unmarked) [Compound No. 1, 4-bromo-6-[3-(4-chlorophenyl)-3-hydroxypropyloxy]-5-(3-pyridylylmethylamino)-3(2H)pyridazinone]", "values": [
      {"measurement": "IC50", "setting": "[3]; [6]", "result": 230, "unit": "nM"},
      {"measurement": "IC50", "setting": "[3]; aggregating agent collagen 2.5 to 10 μg/ml, read-out: Rat PRP IC50, Collagen", "result": 99, "unit": "nM"},
      {"measurement": "IC50", "setting": "[1]; [4]", "result": 50, "unit": "nM"},
      {"measurement": "IC50", "setting": "[1]; [5]", "result": 10, "unit": "nM"},
      {"measurement": "EC50", "setting": "[2]", "result": 1300, "unit": "nM"}
    ]},
    {"smiles": "COc1ccc(CNc2c(OCCC(O)c3ccc(Cl)cc3)n[nH]c(=O)c2Br)cc1OC", "note": "(centres unmarked) [Compound No. 2, 4-bromo-6-[3-(4-chlorophenyl)-3-hydroxypropyloxy]-5-(3,4-dimethoxybenzylamino)-3(2H)pyridazinone]", "values": [
      {"measurement": "IC50", "setting": "[3]; [6]", "result": 72, "unit": "nM"},
      {"measurement": "IC50", "setting": "[3]; Rattus norvegicus, Platelet, 2 min, aggregating agent collagen 2.5 to 10 μg/ml, read-out: Rat PRP IC50, Collagen", "result": 190, "unit": "nM"},
      {"measurement": "IC50", "setting": "[1]; [4]", "result": 41, "unit": "nM"},
      {"measurement": "IC50", "setting": "[1]; [5]", "result": 20, "unit": "nM"}
    ]},
    {"smiles": "O=c1[nH]nc(OCCC(O)c2ccc(Cl)cc2)c(NCc2cccnc2)c1Br", "note": "(centres unmarked) [Compound No. 65, 4-bromo-6-[3-(4-chlorophenyl)-3-hydroxypropyloxy]-5-(3-pyridylylmethylamino)-3(2H)pyridazinone hydrochloride]", "values": [
      {"measurement": "IC50", "setting": "[3]; aggregating agent ADP 5 to 10 μM, hydrochloride, read-out: Rat PRP IC50, ADP", "result": 210, "unit": "nM"},
      {"measurement": "IC50", "setting": "[3]; aggregating agent collagen 2.5 to 10 μg/ml, hydrochloride, read-out: Rat PRP IC50, Collagen", "result": 220, "unit": "nM"},
      {"measurement": "IC50", "setting": "[1]; aggregating agent ADP 5 to 10 μM, hydrochloride, read-out: Rabbit PRP IC50, ADP", "result": 53, "unit": "nM"},
      {"measurement": "IC50", "setting": "[1]; aggregating agent collagen 2.5 to 10 μg/ml, hydrochloride, read-out: Rabbit PRP IC50, Collagen", "result": 19, "unit": "nM"}
    ]},
    {"smiles": "O=c1[nH]nc(OCC[C@@H](O)c2ccc(Cl)cc2)c(NCc2cccnc2)c1Br", "note": "[Compound No. 93, 4-bromo-6-[(3R)-3-(4-chlorophenyl)-3-hydroxylpropyloxy]-5-(3-pyridylylmethylamino)-3(2H)pyridazinone hydrochloride]", "values": [
      {"measurement": "IC50", "setting": "[1]; [4]", "result": 47, "unit": "nM"},
      {"measurement": "IC50", "setting": "[1]; [5]", "result": 9.7, "unit": "nM"}
    ]}
  ]
}
